Laboratory results: ChEMBL document CHEMBL5576127, “New CDDO Arylboronate Ester Derivatives with High Selectivity and Low Toxicity” (J Med Chem, 2024)
Activity calls are given as the source filed them. The calls are words filed in the database; no cut-off is given here.

Experiments:
MCF7 = assay: Antiproliferative activity against human MCF7 cells assessed as inhibition of cell proliferation incubated for 48 hrs by MTT assay; type: functional, cell-based; conditions: MCF7, 48 h
BGC-823 [1] = assay: Antiproliferative activity against human BGC-823 cells assessed as inhibition of cell proliferation incubated for 48 hrs by MTT assay; type: functional, cell-based; conditions: BGC-823, 48 h
HepG2 = assay: Antiproliferative activity against human HepG2 cells assessed as inhibition of cell proliferation incubated for 48 hrs by MTT assay; type: functional, cell-based; conditions: HepG2, 48 h
[2] = Cytotoxicity against human MCF-10A cells assessed as inhibition of cell proliferation incubated for 48 hrs by MTT assay; type: toxicity, cell-based
[3] = Cytotoxicity against human GES1 cells assessed as inhibition of cell proliferation incubated for 48 hrs by MTT assay; type: toxicity, cell-based
[4] = Cytotoxicity against human L02 cells assessed as inhibition of cell proliferation incubated for 48 hrs by MTT assay; type: toxicity, cell-based
MGC-803 = assay: Antiproliferative activity against human MGC-803 cells assessed as inhibition of cell proliferation incubated for 48 hrs by MTT assay; type: functional, cell-based; conditions: MGC-803, 48 h
SGC-7901 = assay: Antiproliferative activity against human SGC-7901 cells assessed as inhibition of cell proliferation incubated for 48 hrs by MTT assay; type: functional, cell-based; conditions: SGC-7901, 48 h
[5] = Selectivity index, ratio of IC50 for cytotoxicity against human GES1 cells to IC50 for antiproliferative activity against human BGC-823 cells in presence of H2O2; type: toxicity, cell-based; conditions: GES1 cells and BGC-823 cells, read-out: Ratio IC50
BGC-823 [6] = assay: Induction of ROS generation in human BGC-823 cells assessed as cells with green fluorescence at 6 uM incubated for 24 hrs by DCFH-DA staining based analysis relative to control; type: functional
Cell membrane [7] = assay: Induction of mitochondrial membrane potential loss in human BGC-823 cells assessed as increase in number of cells with J-monomers by measuring green fluorescence at 6 uM incubated for 24 hrs by JC-1 staining based flow cytometric analysis (reference value: 0.33%); type: cell membranes
Cell membrane [8] = assay: Induction of mitochondrial membrane potential loss in human BGC-823 cells assessed as decrease in number of cells with J-aggregates by measuring red fluorescence at 6 uM incubated for 24 hrs by JC-1 staining based flow cytometric analysis (reference value: 99.7 %); type: cell membranes; set-up: scale not given: the % may be the effect or the level left
BGC-823 [9] = assay: Induction of apoptosis in human BGC-823 cells assessed as early apoptotic cells at 1.5 uM incubated for 48 hrs by Annexin V-FITC/PI staining based flow cytometric analysis ( Rvb = 1.68 %); type: functional
BGC-823 [10] = assay: Induction of apoptosis in human BGC-823 cells assessed as late apoptotic cells at 1.5 uM incubated for 48 hrs by Annexin V-FITC/PI staining based flow cytometric analysis ( Rvb = 5.61 %); type: functional
BGC-823 [11] = assay: Induction of apoptosis in human BGC-823 cells assessed as early apoptotic cells at 3 uM incubated for 48 hrs by Annexin V-FITC/PI staining based flow cytometric analysis ( Rvb = 1.68 %); type: functional
BGC-823 [12] = assay: Induction of apoptosis in human BGC-823 cells assessed as late apoptotic cells at 3 uM incubated for 48 hrs by Annexin V-FITC/PI staining based flow cytometric analysis ( Rvb = 5.61 %); type: functional
BGC-823 [13] = assay: Induction of apoptosis in human BGC-823 cells assessed as necrotic cells at 3 uM incubated for 48 hrs by Annexin V-FITC/PI staining based flow cytometric analysis ( Rvb = 1.79 %); type: functional
BGC-823 [14] = assay: Induction of apoptosis in human BGC-823 cells assessed as viable cells at 6 uM incubated for 48 hrs by Annexin V-FITC/PI staining based flow cytometric analysis ( Rvb = 90.09 %); type: functional; conditions: read-out: Activity
BGC-823 [15] = assay: Induction of apoptosis in human BGC-823 cells assessed as necrotic cells at 6 uM incubated for 48 hrs by Annexin V-FITC/PI staining based flow cytometric analysis ( Rvb = 1.79 %); type: functional
BGC-823 [16] = assay: Cell cycle arrest in human BGC-823 cells assessed as accumulation of cells at G2/M phase incubated for 24 hrs by PI staining based flow cytometric analysis; type: functional
BGC-823 [17] = assay: Antitumor activity against human BGC-823 cells xenografted in BALB/c nude mouse assessed as tumor growth inhibition at 5 mg/kg, ip administered for 21 days relative to control; type: functional; conditions: BGC-823, 504 h, time 21 day, read-out: TGI
[18] = Toxicity in BALB/c nude mouse xenografted with human BGC-823 cells assessed as change in body weight at 5 mg/kg, ip administered for 21 days; type: organism-based; conditions: in vivo, 504 h, time 21 day
BGC-823 [19] = assay: Antitumor activity against human BGC-823 cells xenografted in BALB/c nude mouse assessed as increase in ROS level in tumor at 5 mg/kg, ip administered for 21 days by DHE staining based analysis; type: functional, organism-based; conditions: time 21.0 day
BGC-823 [20] = assay: Antitumor activity against human BGC-823 cells xenografted in BALB/c nude mouse assessed as nuclear fragmentation in tumor at 5 mg/kg, ip administered for 21 days by H and E staining based analysis; type: functional, organism-based; conditions: time 21.0 day
BGC-823 [21] = assay: Antitumor activity against human BGC-823 cells xenografted in BALB/c nude mouse assessed as nuclear condensation in tumor at 5 mg/kg, ip administered for 21 days by H and E staining based analysis; type: functional, organism-based; conditions: time 21.0 day
[22] = Acute toxicity in ip dosed ICR mouse assessed as mortality rate by measuring ratio at 1.93 logarithm of dose relative to total number of mouse; type: organism-based; conditions: in vivo
[23] = Acute toxicity in ip dosed ICR mouse assessed as animal death at 1.82 logarithm of dose; type: organism-based; conditions: in vivo
[24] = Acute toxicity in ip dosed ICR mouse assessed as lethal dose; type: organism-based; conditions: in vivo
[25] = Acute toxicity in ip dosed ICR mouse assessed as effect on heart by H and E staining based analysis; type: organism-based; conditions: in vivo
[26] = Acute toxicity in ip dosed ICR mouse assessed as effect on liver by H and E staining based analysis; type: organism-based; conditions: in vivo
[27] = Acute toxicity in ip dosed ICR mouse assessed as effect on lung by H and E staining based analysis; type: organism-based; conditions: in vivo
BGC-823 [28] = assay: Antiproliferative activity against human BGC-823 cells assessed as reduction in cell viability at 0.52 to 7.68 uM preincubated with NAC for 2 hrs followed by compound addition and measured after 48 hrs by MTT assay; type: functional, cell-based; conditions: dose 0.52-7.68 µM
[29] = Drug release in human BGC-823 cells assessed as increase in 4-((4-hydroxybenzoyl)oxy)butyl (4aS,6aR,6bS,8aR,12aS,14aR,14bS)-11-cyano-2,2,6a,6b,9,9,12a-heptamethyl-10,14-dioxo-1,3,4,5,6,6a,6b,7,8,8a,9,10,12a,14,14a,14b-hexadecahydropicene-4a(2H)-carboxylate concentration incubated for 4 hrs in absence of H2O2 by LC-MS analysis; type: ADME, cell-based; conditions: bgc-823, 4 h
[30] = Binding affinity to DTT in PBS assessed as UV peak appearance at 288 nm at 360 uM by UV-Vis spectra analysis
[31] = GSH reactivity in human BGC-823 cells assessed as GSSG/GSH ratio at 2 uM incubated for 24 hrs by microplate reader analysis (reference value: 0.34); type: ADME, cell-based; conditions: bgc-823, 24 h

CC1(C)CC[C@]2(C(=O)OCCCCOC(=O)c3ccc(OCc4ccc(B5OC(C)(C)C(C)(C)O5)cc4)cc3)CC[C@]3(C)[C@H](C(=O)C=C4[C@@]5(C)C=C(C#N)C(=O)C(C)(C)[C@@H]5CC[C@]43C)[C@@H]2C1
IC50 (MCF7): 2.9 µM
IC50 (BGC-823 [1]): 2.3 µM
IC50 (HepG2): 6.5 µM
IC50 at 48 h [2]: 5 µM
IC50 at 48 h [3]: 4.5 µM
IC50 at 48 h [4]: 6.5 µM
IC50 (MGC-803): 3.6 µM
IC50 (SGC-7901): 3.2 µM
selectivity ratio [5]: 4
Activity (BGC-823 [6]): 35.7%
Activity (Cell membrane [7]): 37.1%
Activity (Cell membrane [8]): 62.7%
Activity (BGC-823 [9]): 2.08%
Activity (BGC-823 [10]): 7.62%
Activity (BGC-823 [11]): 2.13%
Activity (BGC-823 [12]): 9.84%
Activity (BGC-823 [13]): 5.24%
viability at 6 µM (BGC-823 [14]): 75.8%
Activity (BGC-823 [15]): 5.58%
Activity (BGC-823 [16]): Dose-Dependent Effect
inhibition in vivo at 5 mg/kg (BGC-823 [17]): 86.2%
Activity [18]: Non-Toxic
Activity (BGC-823 [19]): Active
Activity (BGC-823 [20]): Active
Activity (BGC-823 [21]): Active
Ratio [22]: 0.17
Activity [23]: Toxic
LD50 [24]: 91.2 mg/kg
Activity [25]: Non-Toxic
Activity [26]: Non-Toxic
Activity [27]: Non-Toxic
Activity (BGC-823 [28]): inactive
Drug metabolism [29]: Metabolite_Notdetected
Activity [30]: inactive
Ratio [31]: 0.48
